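1) Cells in 96-well plates. 2) Compound, 48 h, 5 concentrations. 3) Linear interpolation between surrounding doses. 4) Unreached endpoint = highest concentration. At the GI50, growth is halved. TGI: concentration producing complete growth inhibition.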
How the values were obtained:
Experiment in all cases: NCI tumour cell line growth inhibition, 48 h
NCI/ADR-RES ovarian = tested on: NCI/ADR-RES ovarian
SK-MEL-5 melanoma = tested on: SK-MEL-5 melanoma
UACC-257 melanoma = tested on: UACC-257 melanoma
HCC-2998 colon = tested on: HCC-2998 colon
BT-549 breast = tested on: BT-549 breast
MALME-3M melanoma = tested on: MALME-3M melanoma
SK-MEL-28 melanoma = tested on: SK-MEL-28 melanoma
IGROV1 ovarian = tested on: IGROV1 ovarian
786-0 renal = tested on: 786-0 renal
ACHN renal = tested on: ACHN renal

Structure (SMILES) | GI50 (NCI/ADR-RES ovarian) | TGI (NCI/ADR-RES ovarian) | GI50 (SK-MEL-5 melanoma) | TGI (SK-MEL-5 melanoma) | GI50 (UACC-257 melanoma) | TGI (UACC-257 melanoma) | GI50 (HCC-2998 colon) | TGI (HCC-2998 colon) | GI50 (BT-549 breast) | TGI (BT-549 breast) | GI50 (MALME-3M melanoma) | TGI (MALME-3M melanoma) | GI50 (SK-MEL-28 melanoma) | TGI (SK-MEL-28 melanoma) | GI50 (IGROV1 ovarian) | TGI (IGROV1 ovarian) | GI50 (786-0 renal) | TGI (786-0 renal) | GI50 (ACHN renal) | TGI (ACHN renal)
CCSc1ccc(C2C(Br)C(=O)N2c2cc(OC)c(OC)c(OC)c2)cc1 (stereo unspecified) | 0.125 µM | > 100 µM | 0.0861 µM | 2.84 µM | 14.3 µM | > 100 µM | 0.673 µM | 29.1 µM | 0.525 µM | 11.8 µM | 11.3 µM | 32.4 µM | 1.94 µM | 30 µM | 0.63 µM | 20.9 µM | 0.34 µM | 13.1 µM | – | –
CCN(CC)c1ccc(/C=C/C=C2\NC(=O)NC2=O)cc1 | 1.12 µM | 28.5 µM | 1.17 µM | 13.7 µM | – | – | 2.44 µM | 29.1 µM | 1.53 µM | 40.8 µM | 28.7 µM | > 100 µM | 27.1 µM | > 100 µM | 3.57 µM | > 100 µM | 2.93 µM | 34.2 µM | 7.24 µM | > 100 µM
C[C@@H](Nc1nc(Nc2ccc(F)c(Cl)c2)nc2ccccc12)C1CC1 | 2.3 µM | 8.52 µM | 1.55 µM | 2.96 µM | – | – | 2.27 µM | 6.46 µM | 2.51 µM | 7.3 µM | 1.66 µM | 3.65 µM | 2.86 µM | 11.8 µM | 3.06 µM | 17.7 µM | 1.69 µM | 3.45 µM | 4.11 µM | 17.3 µM
N#CC1C=Cc2c(ccc3ccccc23)N1C(=O)c1ccccc1 (stereo unspecified) | 0.187 µM | – | 0.132 µM | > 42.5 µM | 14.7 µM | > 100 µM | 0.43 µM | > 47.6 µM | 2.29 µM | > 60.1 µM | – | – | 0.723 µM | > 100 µM | 0.105 µM | 3.23 µM | 0.909 µM | > 100 µM | 0.352 µM | > 100 µM
O=C1OCC2=C1C(c1ccccc1)c1cc3c(cc1N2CCO)OCCO3 (stereo unspecified) | 0.377 µM | 1.93 µM | 0.181 µM | 7.18 µM | – | – | 0.182 µM | 0.722 µM | 0.465 µM | > 13.7 µM | > 50 µM | > 50 µM | 8.24 µM | > 50 µM | 0.161 µM | 1.41 µM | 0.288 µM | > 50 µM | 0.493 µM | > 50 µM
O=C(CCCCC(=O)N/N=C\c1ccccc1O)N/N=C\c1ccccc1O | – | – | 3.22 µM | > 100 µM | – | – | 3.87 µM | > 100 µM | 32 µM | > 100 µM | – | – | – | – | 3.49 µM | > 100 µM | 5.13 µM | > 100 µM | 3.53 µM | > 100 µM

— PubChem BioAssay (NCI)
